≈ marks a conversion by molar mass, not a printed value. Where two headings read alike, the source gives them in different places. Starred links: 1 amine or outer side, 2 acyl side, 3 side chain; linkers in the order of their positions; H or OH if unused. Positions of bridges follow the written chain, without caps; N, C: chain ends. Non-standard residues stand in square brackets, D forms with d. Residues, ends and D or L forms follow the SMILES beside them. Chains are numbered I, II in the order given. Actinocin(9to1) = Cc1c2oc3c(C)ccc(C(=O)[*:1])c3nc-2c(C(=O)[*:2])c(N)c1=O; NMeV = CN[C@H](C(=O)O)C(C)C; Sar = CNCC(=O)O
Assays:
[1] = test system: human monocyte (U937) cell line; test: Cytotoxicity, Presto Blue cell viability; type: cell-based; settings: U-937, 72 h
Description: (§1) The human monocyte (U937) and African green monkey kidney (Vero) cell lines were used in this study to determine the cytotoxic potential of the quinoline derivatives. The cell lines were purchased from Separation Scientific SA (Pty) Ltd. (Johannesburg, South Africa) and maintained in Roswell Park Memorial Institute (RPMI) 1640 and Eagle's Minimal Essential Medium (EMEM), supplemented with 10% heat‐inactivated foetal bovine serum (FBS), 1% antibiotics (100 U/mL penicillin and 100 µg/mL streptomycin) and 1% antifungal agent (250 µg/mL amphotericin B) as previously described. The cells were cultured at 37°C, 5% CO2 in a humidified incubator to 80% confluency. Detachment was achieved by rinsing the cells with phosphate buffer saline followed by the addition of trypsin–EDTA (0.25% trypsin containing 0.01% EDTA). After 5 min, the reaction was inhibited through the addition of supplemented media.
(§2) Cell viability was assessed through the method described by Lall et al., using Presto Blue as the viability reagent. The cells were seeded in a flat‐bottom 96‐well plate (100 µL) at a concentration of 1.0 × 10^6 cells/mL and allowed to adhere for 24 h. The samples were prepared in DMSO at a stock concentration of 20 mM, serially diluted in complete media and added to the plate at a final concentration range of 0.78–100 µM. Controls included a vehicle control (2% DMSO), an untreated cell control, a 0% control (no cells) and actinomycin D, as the positive control, at a final test concentration range of 3.9 × 10^−4 to 0.05 µg/mL. Cells were incubated for 72 h, followed by the addition of 20 µL of Presto Blue reagent to all the wells and an additional 2 h incubation. Cell viability was measured using a VICTOR Nivo Multimode Microplate Reader (PerkinElmer) at an excitation/emission wavelength of 540/590 nm.
(§3) All results are presented as the mean ± standard deviation (where applicable) of experiments done in triplicate and in two or three independent experiments (as stated in each methods section). Descriptive analysis was used to directly compare and rank the compounds and derivatives based on their activity in the biological assays. Additionally, by comparing the antibiofilm activity to the antibacterial activity and the antibacterial activity to the cytotoxicity, selectivity indices were used to assess the preferential activity of the compounds.

[2] = test system: African green monkey kidney (Vero) cell line; test: Cytotoxicity, Presto Blue cell viability; type: cell-based; settings: 72 h, read-out: Vero IC50 ± SD
Description: as §1, §2, §3

[3] = test system: MSSA UAMS‐1 biofilm formation; test: Staphylococcal biofilm inhibition, crystal violet microtitre test (MBIC); type: cell-based; settings: Staphylococcus aureus, 22 h, read-out: MSSA MBIC
[4] = test system: M. smegmatis biofilm formation; test: Mycobacterial biofilm inhibition, microtitre antibiofilm assay (MBIC); type: cell-based, Mycobacterium smegmatis; settings: Mycolicibacterium smegmatis, 2–4 days, 37°C, read-out: M. smeg MBIC
[5] = test system: Mycobacterium smegmatis (MC^2 155); test: Antimycobacterial activity, microtitre Alamar Blue/Presto Blue assay (MIC); type: cell-based; settings: Mycolicibacterium smegmatis, read-out: M. smeg MIC
[6] = test system: MRSA AH1263 or LAC biofilm formation; test: Staphylococcal biofilm inhibition, crystal violet microtitre test (MBIC); type: cell-based; settings: Staphylococcus aureus, 22 h, read-out: MRSA MBIC
[7] = test system: methicillin‐sensitive S. aureus (MSSA) UAMS‐1; test: Antistaphylococcal activity, broth microdilution (MIC); type: cell-based; settings: Staphylococcus aureus, read-out: MSSA MIC
[8] = test system: methicillin‐resistant S. aureus (MRSA) AH1263 or LAC; test: as above; type: cell-based, Staphylococcus aureus; settings: 18 h, read-out: MRSA MIC
[9] = test system: Mycobacterium tuberculosis H37Rv (ATCC 27264); test: Antimycobacterial activity, microtitre Alamar Blue/Presto Blue assay (MIC); type: cell-based; settings: 120 h, read-out: M. tb MIC
[10] = MC^2155, M. smegmatis, 24 h, 37°C
[11] = Chlorocebus sabaeus, Vero, Vero cells
[12] = Staphylococcus aureus, MRSA, S. aureus AH1263/LAC
[13] = M. tuberculosis H37Rv, 5 days, 37°C
[14] = U937 cells, 72 h, read-out: U937 IC50 ± SD

Row | SMILES | minimal effective concentration [4] [µM] | MIC [5, 10] [µM] | minimal effective concentration ([6]; S. aureus AH1263/LAC biofilm) [µM] | IC50 [2, 11] [µM] | MIC ([7]; S. aureus UAMS‐1, 18 h) [µM] | MIC [8, 12] [µM] | MIC [9, 13] [µM] | IC50 [1, 14] [µM] | other results
1 | Cc1c2oc3c(C)ccc(C(=O)N[C@@H]4C(=O)N[C@H](C(C)C)C(=O)N5CCC[C@H]5C(=O)N(C)CC(=O)N(C)[C@@H](C(C)C)C(=O)O[C@@H]4C)c3nc-2c(C(=O)N[C@@H]2C(=O)N[C@H](C(C)C)C(=O)N3CCC[C@H]3C(=O)N(C)CC(=O)N(C)[C@@H](C(C)C)C(=O)O[C@@H]2C)c(N)c1=O [Actinomycin D, reference compound] (I: T[dV]P[Sar][NMeV] / II: T[dV]P[Sar][NMeV]; ester I:1-I:C, II:1-II:C; linker I:N-II:N via Actinocin(9to1)) |  |  |  |  |  |  |  |  | IC50 ([1]; read-out: U937 IC50 ± SD): 0.002 µM; IC50 ([2]; Chlorocebus sabaeus, Vero): 0.02 µM
2 | O=C(O)c1cn(C2CC2)c2cc(N3CCNCC3)c(F)cc2c1=O [Ciprofloxacin, reference compound] | 0.325 | 0.6 (≈ 0.199 µg/mL) | 1 |  |  |  |  |  | minimal effective concentration ([3]; S. aureus UAMS‐1 biofilm): 2 µM
3 | Oc1cccc2cccnc12 [HQ‐1, 8‐hydroxyquinoline, reference compound] |  |  |  |  |  |  |  |  | minimal effective concentration [3]: 13.8 µM; MIC ([5]; MC^2155, 24 h): 3.13 µM (≈ 0.454 µg/mL); MIC ([7]; 18 h): 13.8 µM (≈ 2 µg/mL); MIC ([8]; S. aureus AH1263/LAC): 6.90 µM (≈ 1 µg/mL); MIC ([8]; Staphylococcus aureus, MRSA): 6.9 µM (≈ 1 µg/mL); MIC [9]: 1 µM (≈ 0.145 µg/mL); minimal effective concentration [6]: 6.9 µM
4 | Cc1ccc2c(Cl)cc(Cl)c(O)c2n1 [HQ‐2, 5,7‐dichloro‐8‐hydroxy‐2‐methylquinoline, reference compound] | 3.13 | 1.56 (≈ 0.356 µg/mL) | 35.2 | < 100 | 2.2 (≈ 0.502 µg/mL) | 1.1 (≈ 0.251 µg/mL) | 0.1 (≈ 0.0228 µg/mL) |  | minimal effective concentration ([3]; S. aureus UAMS‐1 biofilm): 17.6 µM; IC50 ([2]; Vero cells): 82.8 ± 7.09 µM
5 | Cc1ccc2cccc(O)c2n1 [HQ‐3, 2‐methyl‐8‐hydroxyquinoline, reference compound] |  |  |  |  |  |  |  |  | minimal effective concentration [3]: 101 µM; MIC ([5]; MC^2155, 24 h): 6.25 µM (≈ 0.995 µg/mL); IC50 ([1]; read-out: U937 IC50 ± SD, U937 cells, 72 h): > 100 µM; IC50 ([2]; Chlorocebus sabaeus, Vero): > 100 µM; MIC ([7]; 18 h): 201 µM (≈ 32 µg/mL); MIC ([8]; Staphylococcus aureus, MRSA): 101 µM (≈ 16 µg/mL); MIC [9]: 1 µM (≈ 0.159 µg/mL); minimal effective concentration [6]: 201 µM
6 | NNC(=O)c1ccncc1 [Isoniazid, reference compound] |  |  |  |  |  |  | 0.3 (≈ 0.0411 µg/mL) |  | 
7 | Cc1onc(-c2ccccc2)c1C(=O)N[C@@H]1C(=O)N2[C@@H]1SC(C)(C)[C@@H]2C(=O)O [Oxacillin, reference compound] |  |  |  |  | 1 (≈ 0.401 µg/mL) | 64 (≈ 25.7 µg/mL) |  |  | 
8 | CCCCCOc1cccc2cccnc12 [QD‐1] | > 100 | > 100 | 595 | > 100 | 595 (≈ 128 µg/mL) | 595 (≈ 128 µg/mL) | 100 (≈ 21.5 µg/mL) | > 100 | minimal effective concentration ([3]; S. aureus UAMS‐1 biofilm): 595 µM
9 | CC(C)CCOc1cccc2cccnc12 [QD‐2] | > 100 | > 100 | 1190 | > 100 |  | 1190 (≈ 256 µg/mL) | > 100 | > 100 | minimal effective concentration ([3]; S. aureus UAMS‐1 biofilm): 1190 µM
10 | CC(C)=CCOc1cccc2cccnc12 [QD‐3] | 100 | > 100 | 601 | > 100 | 300 (≈ 64.1 µg/mL) | 300 (≈ 64.1 µg/mL) | 100 (≈ 21.3 µg/mL) | 83.83 ± 0.8 | minimal effective concentration ([3]; S. aureus UAMS‐1 biofilm): 601 µM
11 | CCCCCOc1c(Cl)cc(Cl)c2ccc(C)nc12 [QD‐4] | > 100 | > 100 |  | > 100 |  |  | > 100 | > 100 | 
12 | Cc1ccc2c(Cl)cc(Cl)c(OCCC(C)C)c2n1 [QD‐5] | > 100 | > 100 |  | > 100 |  |  | > 100 | > 100 | 
13 | CC(C)=CCOc1c(Cl)cc(Cl)c2ccc(C)nc12 [QD‐6] | > 100 | > 100 | 256 | > 100 |  |  | 100 (≈ 29.6 µg/mL) | > 100 | 
14 | CCCCCOc1cccc2ccc(C)nc12 [QD‐7] | > 100 | > 100 |  | > 100 | 1120 (≈ 256 µg/mL) | 1120 (≈ 256 µg/mL) | 100 (≈ 22.9 µg/mL) | > 100 | 
15 | Cc1ccc2cccc(OCCC(C)C)c2n1 [QD‐8] | 100 | > 100 |  | > 100 | 559 (≈ 128 µg/mL) |  | 100 (≈ 22.9 µg/mL) | > 100 | 
16 | CC(C)=CCOc1cccc2ccc(C)nc12 [QD‐9] | > 100 | > 100 |  | > 100 |  |  | 100 (≈ 22.7 µg/mL) | > 100 | 
17 | CCCCCOC(=O)c1ccc2cccc(OCCCCC)c2n1 [QD‐10, pentyl 8‐(pentyloxy)quinoline‐2‐carboxylate] | > 100 | > 100 |  | 84.8 ± 3.42 | 389 (≈ 128 µg/mL) | 389 (≈ 128 µg/mL) | 100 (≈ 32.9 µg/mL) | 69.48 ± 0.16 | 
18 | CC(C)CCOC(=O)c1ccc2cccc(OCCC(C)C)c2n1 [QD‐11, isopentyl 8‐(isopentyloxy)quinoline‐2‐carboxylate] | > 100 | > 100 |  | 70.4 ± 3.99 | 389 (≈ 128 µg/mL) | 389 (≈ 128 µg/mL) | 100 (≈ 32.9 µg/mL) | > 100 | 
19 | CN[C@H](CC(C)C)C(=O)N[C@H]1C(=O)N[C@@H](CC(N)=O)C(=O)N[C@H]2C(=O)N[C@H]3C(=O)N[C@H](C(=O)N[C@H](C(=O)O)c4cc(O)cc(O)c4-c4cc3ccc4O)[C@H](O)c3ccc(c(Cl)c3)Oc3cc2cc(c3O[C@@H]2O[C@H](CO)[C@@H](O)[C@H](O)[C@H]2O[C@H]2C[C@](C)(N)[C@H](O)[C@H](C)O2)Oc2ccc(cc2Cl)[C@H]1O [Vancomycin, reference compound] |  |  |  |  |  |  |  |  | MIC ([7]; 18 h): 1 µM (≈ 1.45 µg/mL); MIC ([8]; Staphylococcus aureus, MRSA): 1 µM (≈ 1.45 µg/mL)
